The values below come from ChEMBL document CHEMBL3392969, “SAR156497, an exquisitely selective inhibitor of aurora kinases” (J Med Chem, 2015).

pIC50: −log10 of the molar value. Bounds are passed on as bounds.

The nature of data set [1]: in vitro. To be noted: mouse, liver microsomes.
Description: Metabolic stability mouse liver microsomes assessed as stability at 5 uM by LC/MS-MS analysis
Data set [2] can be described thus: in vitro. To be noted: human, liver microsomes. For orientation: Liver microsomes are vesicles of endoplasmic reticulum, rich in cytochrome P450 enzymes.
Description: Metabolic stability human liver microsomes assessed as stability at 5 uM by LC/MS-MS analysis
Data set [3] deals with Aurora kinase B (Homo sapiens, UniProt Q96GD4).
Sequence of Aurora kinase B (Q96GD4 whole entry): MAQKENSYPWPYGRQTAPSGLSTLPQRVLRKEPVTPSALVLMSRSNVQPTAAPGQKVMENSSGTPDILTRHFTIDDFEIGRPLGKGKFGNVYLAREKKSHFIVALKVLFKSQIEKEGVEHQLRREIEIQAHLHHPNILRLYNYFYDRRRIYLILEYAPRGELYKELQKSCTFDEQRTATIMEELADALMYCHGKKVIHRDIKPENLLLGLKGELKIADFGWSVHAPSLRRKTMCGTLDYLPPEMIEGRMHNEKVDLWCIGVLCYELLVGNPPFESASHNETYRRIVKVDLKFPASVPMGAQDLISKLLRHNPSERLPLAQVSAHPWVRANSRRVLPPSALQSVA
Description: Inhibition of poly-histidine tagged full length recombinant aurora B (unknown origin) assessed as phosphorylation of NuMA-histidine substrate by scintillation counting analysis
Data set [4] deals with Cytochrome P450 3A4 (Homo sapiens, UniProt P08684).
Sequence of Cytochrome P450 3A4 (P08684 whole entry): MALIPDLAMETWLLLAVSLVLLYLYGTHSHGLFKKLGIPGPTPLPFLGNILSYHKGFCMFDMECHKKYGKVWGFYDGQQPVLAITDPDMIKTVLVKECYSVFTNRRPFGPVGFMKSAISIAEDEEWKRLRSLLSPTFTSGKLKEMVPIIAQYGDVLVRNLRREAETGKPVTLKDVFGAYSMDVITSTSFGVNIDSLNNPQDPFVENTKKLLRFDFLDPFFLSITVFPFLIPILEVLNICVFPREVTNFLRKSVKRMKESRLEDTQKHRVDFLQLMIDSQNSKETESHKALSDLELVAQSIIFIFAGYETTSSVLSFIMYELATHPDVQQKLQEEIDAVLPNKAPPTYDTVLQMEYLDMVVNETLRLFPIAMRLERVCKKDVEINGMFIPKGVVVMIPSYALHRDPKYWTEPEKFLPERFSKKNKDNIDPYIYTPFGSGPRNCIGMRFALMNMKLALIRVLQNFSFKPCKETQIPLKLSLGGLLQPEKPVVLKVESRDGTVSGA
Description: Inhibition of human recombinant CYP3A4 co-expressed with human P450 reductase/human b5 reductase using 7-benzyloxyquinoline substrate
Data set [5] deals with HeLa. In words: cells. Particulars: Homo sapiens.
Description: Antiproliferative activity against human HeLa cells assessed as 14C-thymidine incorporation by Micro-Beta radioactivity counting analysis

Take `CCOC(=O)c1[nH]cc2c1NC1=C(C(=O)CCC1)C2c1ccc(Sc2nc3c(F)cc(F)cc3[nH]2)o1` (stereo not given): the fraction remaining (commonly what is left of the initial amount, in per cent) at 5 µM in data set [1] amounted to 36%; in data set [2], 66%. Besides, the results for the pIC50 in data set [3] and in data set [4] were 8.40 and 6.00, respectively.

Consider `CCOC(=O)c1[nH]cc2c1NC1=C(C(=O)CN(C(=O)CN)C1)[C@H]2c1ccc(Sc2nc3ccccc3[nH]2)o1`, for which the values for the amount remaining at 5 µM in data set [1] and in data set [2] were 30% and 65%, respectively. The pIC50 (as a rule, −log10 of the IC50, conventionally taken in molar units) in data set [3] was 8.40; in data set [4] it was 6.30.

`CCOC(=O)c1[nH]cc2c1NC1=C(C(=O)CN(C(=O)CN)C1)[C@H]2c1ccc(Sc2nc3c(F)cccc3[nH]2)o1`: the fraction remaining at 5 µM in data set [1] was 17%; in data set [2] it was less than 40%. Moreover, the negative-log IC50 (pIC50) in data set [3] was 8.70.

In the case of `CCOC(=O)c1[nH]cc2c1NC1=C(C(=O)CCC1)C2c1cc(Sc2nc3ccccc3[nH]2)cs1` (racemic), the pIC50 in data set [5] is 5.82; in data set [3], 8.70.

Molecule `O=C1CNCC2=C1C(c1cccc(Oc3cc(Cl)cc(Cl)c3)c1)c1c[nH]nc1N2` (racemic) had a negative logarithm of the IC50 (pIC50) in data set [5] of less than 5.00.

In data set [5], `O=C1CNCC2=C1C(c1cccc(Oc3ccccc3)c1)c1c[nH]nc1N2` (racemic) showed a pIC50 of less than 5.00.

With `O=C1CNCC2=C1C(c1cccc(Oc3ccc(Cl)cc3)c1)c1c[nH]nc1N2` (racemic), in data set [5], the negative logarithm of the IC50 (pIC50) was less than 5.00.

As for `COc1ccc(Oc2cccc(C3C4=C(CNCC4=O)Nc4n[nH]cc43)c2)cc1` (racemic), the pIC50 in data set [5] is less than 5.00.

`O=C1CNCC2=C1C(c1cccc(Oc3ccc(Cl)c(Cl)c3)c1)c1c[nH]nc1N2` (racemic) gave a pIC50 in data set [5] of less than 5.00.

In data set [5], `O=C1CNCC2=C1C(c1ccc(Sc3nc4ccccc4[nH]3)o1)c1c[nH]nc1N2` (racemic) showed a pIC50 of less than 5.00.

Turning to `O=C1CCCC2=C1C(c1ccc(Sc3nc4ccccc4[nH]3)o1)c1cn[nH]c1N2` (racemic), the pIC50 in data set [5] was 6.52; in data set [3], 8.30.

As to `O=C1CCCC2=C1C(c1ccc(Sc3nc4ccccc4[nH]3)o1)c1n[nH]cc1N2` (racemic), the values for the negative-log IC50 (pIC50) in data set [5] and in data set [3] were less than 5.00 and 6.30, respectively.

With `CCOC(=O)c1[nH]nc2c1NC1=C(C(=O)CCC1)C2c1ccc(Sc2nc3ccccc3[nH]2)o1` (racemic), the results for the negative logarithm of the IC50 (pIC50) in data set [5] and in data set [3] were 5.11 and 7.48, respectively.

With `NC(=O)c1[nH]nc2c1NC1=C(C(=O)CCC1)C2c1ccc(Sc2nc3ccccc3[nH]2)o1` (racemic), the pIC50 in data set [5] is less than 5.00; in data set [3], 7.72.

`Nc1nc(O)c2c(n1)NC1=C(C(=O)CCC1)C2c1ccc(Sc2nc3ccccc3[nH]2)o1` (racemic) gave a pIC50 in data set [5] of less than 5.00.

For the molecule `COC(=O)c1csc2c1NC1=C(C(=O)CCC1)C2c1ccc(Sc2nc3ccccc3[nH]2)o1` (racemic), the figures for the negative-log IC50 (pIC50) in data set [5] and in data set [3] were 6.90 and 8.30, respectively.

On to `CCOC(=O)c1[nH]cc2c1NC1=C(C(=O)CCC1)C2c1ccc(Sc2nc3cc(F)ccc3[nH]2)o1` (racemic), for which the amount remaining at 5 µM in data set [1] stood at 77%; in data set [2], 73%. Also, the negative logarithm of the IC50 (pIC50) in data set [4] is 4.92.

With `CCOC(=O)c1[nH]cc2c1NC1=C(C(=O)CCC1)C2c1ccc(Sc2nc3cc(F)c(F)cc3[nH]2)o1` (racemic), the values for the fraction remaining at 5 µM in data set [1] and in data set [2] were 55% and 58%, respectively. Further, the negative logarithm of the IC50 (pIC50) in data set [4] was 5.08.

Regarding `CCOC(=O)c1[nH]cc2c1NC1=C(C(=O)CCC1)C2c1ccc(Sc2nc3ccc(F)c(F)c3[nH]2)o1` (racemic), the fraction remaining at 5 µM in data set [1] and in data set [2] was 66% throughout. This molecule showed a negative-log IC50 (pIC50) in data set [4] of 4.47.

On to `CCOC(=O)c1[nH]cc2c1NC1=C(C(=O)CCC1)C2c1ccc(Sc2nc3c(F)c(F)c(F)cc3[nH]2)o1` (racemic), for which the fraction remaining at 5 µM in data set [1] was determined as 22%; in data set [2] it was 46%.

On to `CCOC(=O)c1[nH]cc2c1NC1=C(C(=O)CCC1)C2c1ccc(Sc2nc3cc(Cl)ccc3[nH]2)o1` (racemic), for which the share remaining at 5 µM in data set [1] was found to be 88%; in data set [2], 90%.

As for `CCOC(=O)c1[nH]cc2c1NC1=C(C(=O)CCC1)C2c1ccc(Sc2nc3cccnc3[nH]2)o1` (racemic), the fraction remaining at 5 µM in data set [1] and in data set [2] was 49% each time.

On to `CCOC(=O)c1[nH]cc2c1NC1=C(C(=O)CCC1)C2c1ccc(Sc2nc3c(O)cccc3[nH]2)o1` (racemic), for which the figures for the amount remaining at 5 µM in data set [1] and in data set [2] were 37% and 40%, respectively. Moreover, the negative-log IC50 (pIC50) in data set [3] is 8.10; in data set [4], 6.31.

As to `CCOC(=O)c1[nH]cc2c1NC1=C(C(=O)CCC1)C2c1ccc(Sc2nc3c(N)cccc3[nH]2)o1` (racemic), the share remaining at 5 µM amounted to 35% in data set [1] and 23% in data set [2]. Moreover, the negative-log IC50 (pIC50) in data set [3] is 7.60.

In the case of `CCOC(=O)c1[nH]cc2c1NC1=C(C(=O)CN(CC)C1)C2c1ccc(Sc2nc3ccccc3[nH]2)o1` (racemic), the values for the amount remaining at 5 µM in data set [1] and in data set [2] were 99% and 65%, respectively. Further, in data set [3], the negative logarithm of the IC50 (pIC50) was 8.22.

Turning to `CCOC(=O)c1[nH]cc2c1NC1=C(C(=O)CNC1)C2c1ccc(Sc2nc3cccc(Cl)c3[nH]2)o1` (racemic), the pIC50 in data set [3] was 8.30.

For `CCOC(=O)c1[nH]cc2c1NC1=C(C(=O)CNC1)C2c1ccc(Sc2nc3c(F)cccc3[nH]2)o1` (racemic), in data set [3], the pIC50 is 8.52.

With `CCOC(=O)c1[nH]cc2c1NC1=C(C(=O)CN(C(=O)OC(C)(C)C)C1)C2c1ccc(Sc2nc3ccccc3[nH]2)o1` (racemic), in data set [3], the negative logarithm of the IC50 (pIC50) is 7.59.

The molecule `CCOC(=O)c1[nH]cc2c1NC1=C(C(=O)CN(Cc3ccccc3)C1)C2c1ccc(Sc2nc3ccccc3[nH]2)o1` (racemic) gave a negative-log IC50 (pIC50) in data set [3] of 8.10.

`CCOC(=O)c1[nH]cc2c1NC1=C(C(=O)CCC1)C2c1ccc(Sc2nc3ccccc3[nH]2)s1` (racemic): the negative-log IC50 (pIC50) in data set [5] is 5.34; in data set [3], 6.74.

With `CCOC(=O)c1[nH]cc2c1NC1=C(C(=O)CCC1)C2c1cnc(Sc2nc3ccccc3[nH]2)s1` (racemic), the negative-log IC50 (pIC50) in data set [5] was less than 5.00.

As for `CCOC(=O)c1[nH]cc2c1NC1=C(C(=O)CCC1)C2c1cccc(Sc2nc3ccccc3[nH]2)c1` (racemic), the values for the pIC50 in data set [5] and in data set [3] were 5.01 and 8.15, respectively.

On to `CCOC(=O)c1[nH]cc2c1NC1=C(C(=O)CCC1)C2c1cccc(Sc2nc3ccccc3[nH]2)n1` (racemic), for which the pIC50 was 5.36 in data set [5] and 8.15 in data set [3].

As to `CCOC(=O)c1[nH]cc2c1NC1=C(C(=O)CCC1)C2c1ccnc(Sc2nc3ccccc3[nH]2)c1` (racemic), the negative-log IC50 (pIC50) is less than 5.00 in data set [5] and 5.96 in data set [3].

On to `CCOC(=O)c1[nH]cc2c1NC1=C(C(=O)CCC1)C2c1cccc(Oc2nc3ccccc3[nH]2)c1` (racemic), for which the negative-log IC50 (pIC50) was 6.70 in data set [5] and 7.92 in data set [3].

Turning to `O=C1CCCC2=C1C(c1ccc(Sc3nc4ccccc4[nH]3)o1)c1c[nH]cc1N2` (single isomer, unassigned; (+)), the pIC50 in data set [5] was 5.43; in data set [3], 6.90.

In turn, `COC(=O)c1[nH]cc2c1NC1=C(C(=O)CCC1)C2c1ccc(Sc2nc3ccccc3[nH]2)o1` (single isomer, unassigned; (+)) gave a pIC50 in data set [5] of 7.59.

Take `O=C1CCCC2=C1C(c1ccc(Sc3nc4ccccc4[nH]3)o1)c1c[nH]c(C(=O)O)c1N2` (single isomer, unassigned; (+)): the pIC50 in data set [5] was 5.06; in data set [3] it was 7.80.
